Assay results as given in patent US20240368147A1, “CYCLIN K DEGRADER” (ADLAI NORTYE BIOPHARMA CO., LTD., priority 2021, published 2024).

The molecules below were run on HGC27 (Human Gastric Cancer Cell) (assay: HGC27 cell growth inhibition (CellTiter-Glo)). Conditions: HGC27 cells, 24 hours, CellTiter-Glo; read-out: HGC27 CTG IC50.
Assay type: cell-based
Method: Biological Activity Detection of HGC27 (Human Gastric Cancer Cell) Cell Growth Inhibition
This detection method is used to evaluate the cellular level biological activity of the compounds of the present disclosure.
Harvest HGC27 cells (purchased from Chinese Academy of Sciences), resuspend in complete culture medium and adjust the cell density to 0.2×10^6 cells per ml. Add 100 μL of cell suspension to each well into a 96-well plate and incubate overnight in a 37° C., 5% CO2 incubator. Prepare the compound to be tested and add it to the cell plate so that the maximum concentration of the compound is 10 μM. Set 8 concentration points according to 3-fold dilution. At the same time, set up a 100% inhibition control well, that is, a well with no cells added and only an equal volume of complete culture medium; and a 0% inhibition control well, that is, a cell well with 0.1% DMSO added. The above cell plate was cultured at 37° C. and 5% CO2 for 24 hours. Take out the cell culture plate, add 25 μl CellTiter-Glo® Luminescent Cell Viability reagent (promega cat #G7573) to each well, incubate in the dark for 10 minutes, transfer 100 μL to a white plate, and use Molecular Devices SpectraMax i3 to detect chemiluminescence. Data processing uses the following formula to calculate the inhibition rate: compound inhibition rate=(0% inhibition of control well signal−compound treatment well signal)/(0% inhibition of control well signal−100% inhibition of control well signal)*100%. The calculated data were fitted using graphpad prism software with four parameters and the corresponding IC50 was calculated.
According to the above detection method, the biological activity of the compound of the present disclosure was evaluated at the cellular level. Wherein, CR8 is a literature compound, which was purchased from Shanghai Bide Pharmaceutical.
Work on `O[C@@H]1CCC[C@H]1Nc1nc(NCc2ccc(-c3ccccn3)cc2)ncc1C(F)(F)F` [Compound 152] yielded an IC50 of 0.202 µM.

Same assay, conditions: Homo sapiens, HGC-27, 24 h, HGC27 cells, 24 hours, CellTiter-Glo; read-out: HGC27 CTG IC50
`OCc1cc(CO)nc(-c2ccc(CNc3ncc(C(F)(F)F)c(OC4COC4)n3)cc2)c1` [Compound 125] showed an IC50 of 0.191 µM. With `O[C@H]1COC[C@H]1Oc1nc(NCc2ccc(-c3ccccn3)cc2)ncc1C(F)(F)F` [Compound 151] the IC50 was 0.197 µM. For `CC[C@@H](Nc1nc(NCc2ccc(-c3cc(CO)cc(CO)n3)cn2)ncc1C(F)(F)F)C(N)=O` [Compound 176], the IC50 was 0.171 µM. Work on `CCc1ccnc(-c2ccc(CNc3ncc(C(F)(F)F)c(OC4COC4)n3)cc2)c1` [Compound 135] yielded an IC50 of 0.427 µM. `OCc1ccnc(-c2ccc(CNc3ncc(C(F)(F)F)c(OC4COC4)n3)cc2)c1` [Compound 43] was tested, and the IC50 was 0.266 µM. `C[C@H](CO)Oc1nc(NCc2ccc(-c3ccccn3)cc2)ncc1C(F)(F)F` [Compound 165] was tested, and the IC50 was 0.089 µM. Molecule `C=Cc1ccnc(-c2ccc(CNc3ncc(C(F)(F)F)c(OC4COC4)n3)cc2)c1` [Compound 129] has an IC50 of 0.077 µM. Work on `C[C@@H](Oc1nc(NCc2ccc(-c3ccccn3)cc2)ncc1C(F)(F)F)C(N)=O` [Compound 166] yielded an IC50 of 0.024 µM. With `Cc1ccnc(-c2ccc(CNc3ncc(C(F)(F)F)c(OC4COC4)n3)cc2)c1` [Compound 40] the IC50 was 0.341 µM. Work on `CC[C@H](CO)Oc1nc(NCc2ccc(-c3ccccn3)cc2)ncc1C(F)(F)F` [Compound 149] yielded an IC50 of 0.238 µM. Molecule `C[C@@H](O)[C@@H](C)Oc1nc(NCc2ccc(-c3cc(CO)cc(CO)n3)cn2)ncc1C(F)(F)F` [Compound 182] has an IC50 of 0.068 µM. With `C[C@@H](Nc1ncc(C(F)(F)F)c(OC2COC2)n1)c1ccc(-c2cc(CO)cc(CO)n2)cc1` [Compound 181] the IC50 was 0.063 µM. For `CC[C@H](CO)Nc1nc(NCc2ccc(-c3ccccn3)cc2)c2ncn(C(C)C)c2n1` [CR8, reference compound], the IC50 was 0.429 µM. `CC[C@@H](Nc1nc(NCc2ccc(-c3cc(CO)cc(CO)n3)cc2)ncc1C(F)(F)F)C(N)=O` [Compound 169] gave an IC50 of 0.053 µM. In the case of `CS(=O)(=O)c1cccc(-c2nc(NCc3ccc(-c4ccccn4)cc3)ncc2C(F)(F)F)c1` [Compound 146], the IC50 is reported as 0.281 µM. Work on `NS(=O)(=O)c1cncc(-c2nc(NCc3ccc(-c4ccccn4)cc3)ncc2C(F)(F)F)c1` [Compound 147] yielded an IC50 of 0.41 µM. In the case of `N#Cc1cc(CO)nc(-c2ccc(CNc3ncc(C(F)(F)F)c(OC4COC4)n3)cc2)c1` [Compound 179], the IC50 is reported as 0.108 µM. `C[C@@H](Nc1nc(NCc2ccc(-c3ccccn3)cc2)ncc1C(F)(F)F)C(=O)N(C)C` [Compound 192] was tested, and the IC50 was 0.025 µM. In the case of `O[C@H]1CC[C@H]1Nc1nc(NCc2ccc(-c3ccccn3)cc2)ncc1C(F)(F)F` [Compound 91], the IC50 is reported as 0.486 µM. `C[C@@H](O)[C@@H](C)Oc1nc(NCc2ccc(-c3cc(CO)cc(CO)n3)cc2)ncc1C(F)(F)F` [Compound 168] was tested, and the IC50 was 0.06 µM. `CC(C)(C)[C@H](CO)Nc1nc(NCc2ccc(-c3ccccn3)cc2)ncc1C(F)(F)F` [Compound 85] gave an IC50 of 0.405 µM. With `CNC(=O)[C@@H](C)Nc1nc(NCc2ccc(-c3ccccn3)cc2)ncc1C(F)(F)F` [Compound 193] the IC50 was 0.039 µM. `NC(=O)[C@@H](CO)Nc1nc(NCc2ccc(-c3ccccn3)cc2)ncc1C(F)(F)F` [Compound 127] was tested, and the IC50 was 0.446 µM. With `O[C@H]1CNCC1Oc1nc(NCc2ccc(-c3ccccn3)cc2)ncc1C(F)(F)F` (stereo partly shown) [Compound 164] the IC50 was 0.386 µM. With `C[C@@H](O)[C@@H](CO)Nc1nc(NCc2ccc(-c3ccccn3)cc2)ncc1C(F)(F)F` [Compound 126] the IC50 was 0.17 µM. Molecule `Cc1cc(CO)cc(-c2ccc(CNc3ncc(C(F)(F)F)c(OC4COC4)n3)cc2)n1` [Compound 64] has an IC50 of 0.251 µM. With `C[C@@H](Oc1nc(NCc2ccc(-c3ccccn3)cc2)ncc1C(F)(F)F)C(C)(C)O` [Compound 167] the IC50 was 0.049 µM. `OC[C@H](Nc1nc(NCc2ccc(-c3ccccn3)cc2)ncc1C(F)(F)F)C1CC1` [Compound 159] was tested, and the IC50 was 0.045 µM. `Cc1cc(CO)nc(-c2ccc(CNc3ncc(C(F)(F)F)c(OC4COC4)n3)cc2)c1` [Compound 69] gave an IC50 of 0.185 µM. In the case of `CN1CCC(Oc2nc(NCc3ccc(-c4ccccn4)cc3)ncc2C(F)(F)F)CC1` [Compound 35], the IC50 is reported as 0.379 µM. `OCC(CO)Nc1nc(NCc2ccc(-c3ccccn3)cc2)ncc1C(F)(F)F` [Compound 104] showed an IC50 of 0.275 µM. In the case of `CC[C@@H](Nc1nc(NCc2ccc(-c3cc(CO)cc(CO)n3)cc2)ncc1C(F)(F)F)[C@@H](C)O` [Compound 198], the IC50 is reported as 0.439 µM. Molecule `NC(=O)[C@H](Nc1nc(NCc2ccc(-c3ccccn3)cc2)ncc1C(F)(F)F)C1CCC1` [Compound 211] has an IC50 of 0.11 µM. In the case of `C[C@@H](O)[C@@H](CO)Nc1nc(NCc2ccc(-c3cccc(CO)n3)cc2)ncc1C(F)(F)F` [Compound 171], the IC50 is reported as 0.025 µM. Work on `C[C@@H](O)[C@@H](CO)Nc1nc(NCc2ccc(-c3cc(CO)cc(CO)n3)cn2)ncc1C(F)(F)F` [Compound 177] yielded an IC50 of 0.193 µM. In the case of `CC[C@@H](Nc1nc(NCc2ccc(-c3cc(C)cc(CO)n3)cc2)ncc1C(F)(F)F)C(N)=O` [Compound 163], the IC50 is reported as 0.393 µM. In the case of `C[C@@H](O)[C@@H](C)Oc1nc(NCc2ccc(-c3ccccn3)cc2)ncc1C(F)(F)F` [Compound 131], the IC50 is reported as 0.1 µM. `C[C@@H](O)[C@@H](CN1CCCC1)Nc1nc(NCc2ccc(-c3ccccn3)cc2)ncc1C(F)(F)F` [Compound 202] gave an IC50 of 0.367 µM. For `CC[C@H](O)[C@@H](C)Nc1nc(NCc2ccc(-c3ccccn3)cc2)ncc1C(F)(F)F` [Compound 199], the IC50 was 0.205 µM. Work on `C[C@@H](Nc1ncc(C(F)(F)F)c(OC2COC2)n1)c1ccc(-c2ccccn2)cc1` [Compound 119] yielded an IC50 of 0.479 µM. `C[C@@H](O)[C@@H](CO)Nc1nc(NCc2ccc(-c3cc(CO)cc(CO)n3)cc2)ncc1C#N` [Compound 175] gave an IC50 of 0.406 µM. Work on `CC(C)[C@@H](Nc1nc(NCc2ccc(-c3ccccn3)cc2)ncc1C(F)(F)F)C(N)=O` [Compound 210] yielded an IC50 of 0.034 µM. In the case of `COC[C@H](CO)Nc1nc(NCc2ccc(-c3ccccn3)cc2)ncc1C(F)(F)F` [Compound 158], the IC50 is reported as 0.049 µM. `CC[C@@H](Nc1nc(NCc2ccc(-c3ccccn3)cc2)ncc1C(F)(F)F)[C@@H](C)O` [Compound 195] gave an IC50 of 0.025 µM. For `C[C@@H](O)[C@@H](C)Nc1nc(NCc2ccc(-c3cc(CO)cc(CO)n3)cc2)ncc1C(F)(F)F` [Compound 194], the IC50 was 0.278 µM. Work on `CC[C@H](CN)Nc1nc(NCc2ccc(-c3ccccn3)cc2)ncc1C(F)(F)F` [Compound 214] yielded an IC50 of 0.292 µM. Work on `Cc1cc(CO)cc(-c2ccc(CNc3ncc(C(F)(F)F)c(N[C@H](CO)[C@@H](C)O)n3)cc2)n1` [Compound 160] yielded an IC50 of 0.048 µM. For `C[C@@H](O)[C@@H](CO)Nc1nc(NCc2ccc(-c3cc(CO)cc(CO)n3)cc2)ncc1C(F)(F)F` [Compound 170], the IC50 was 0.048 µM. `COc1ccnc(-c2ccc(CNc3ncc(C(F)(F)F)c(OC4COC4)n3)cc2)c1` [Compound 114] gave an IC50 of 0.251 µM. For `N#Cc1ccnc(-c2ccc(CNc3ncc(C(F)(F)F)c(OC4COC4)n3)cc2)c1` [Compound 138], the IC50 was 0.254 µM.

Same assay, conditions: Homo sapiens, HGC-27, 24 h, read-out: HGC27 CTG IC50
With `FC(F)(F)c1cnc(NCc2ccc(-c3cnccn3)cc2)nc1OC1COC1` [Compound 21] the IC50 was 0.155 µM. `C[C@H](O)[C@@H](Nc1nc(NCc2ccc(-c3ccccn3)cc2)ncc1C(F)(F)F)C(N)=O` [Compound 212] showed an IC50 of 0.187 µM. In the case of `C[C@@H](O)[C@H](Nc1nc(NCc2ccc(-c3ccccn3)cc2)ncc1C(F)(F)F)C(N)=O` [Compound 207], the IC50 is reported as 0.103 µM. In the case of `C[C@@H](O)[C@@H](Nc1nc(NCc2ccc(-c3ccccn3)cc2)ncc1C(F)(F)F)C(N)=O` [Compound 213], the IC50 is reported as 0.123 µM.
